Experimental data from US8153694B2, “Cyclopropanecarboxylic acid compound” (Takeda Pharmaceutical Company Limited, priority 2005, dated 2012).
Counter-ions that a name gives are not always drawn.

Target: T1, human GPR40 (Homo sapiens, UniProt O14842)
T1 construct: expressed in transfected cells; host or cells: CHO cell line stably expressing human GPR40
Test: Receptor function modulating action (agonist action) against human-derived GPR40: intracellular calcium change by FLIPR in CHO cells stably expressing human GPR40
Format: cell-based
Description: Receptor Function Modulating Action (Agonist Action) against Human-Derived GPR40 For determination of agonist activity, CHO cell line that stably expressed human GPR40 was used. […] The cells cultured to nearly confluent were rinsed with PBS (Invitrogen) on the previous day of the assay, peeled off with EDTA ([…], Wako Junyaku) and recovered by centrifugation. The number of the obtained cells was counted, and the cells were diluted such that 3×10^5 cells were contained per 1 mL of the medium, dispensed to a 96 well black clear bottom plate (coaster) by 100 μL per well and cultured overnight in a CO2 incubator. Various test compounds were added to the CHO cells thus prepared, and the changes in the intracellular calcium concentration were measured using FLIPR (Molecular Device). The below-mentioned pre-treatment was applied to measure changes in the intracellular calcium concentration by FLIPR. […] A fluorescence dye solution was prepared by adding 500 μM probenecid dissolved in 1N NaOH to the assay buffer to a final concentration of […], and adding the solution (10 mL) to 1 vial of component A (Molecular Device). One day before the assay, the medium of CHO cells re-plated on a 96 well black clear bottom plate was removed, and the cells were washed with D-PBS(−). […] Then, the fluorescence dye solution was dispensed by 100 μL per well, and the cells were cultured in a CO2 incubator for 1 hr to allow uptake of the fluorescence dye by the cells. During this period, the test compound was diluted to a given concentration with the assay buffer, and dispensed to a polypropylene 96-well plate (sample plate) by 100 μL. The cell plate and the sample plate were simultaneously set on FLIPR. After the above-mentioned pre-treatment, variation in the intracellular calcium concentration after addition of various test compounds (50 μL) was measured by FLIPR.

[1] = agonist activity of each compound at 1 μM, relative to the activity of 10 μM γ-linolenic acid as 100%, CHO cell line stably expressing human GPR40

T1 sequence (O14842 whole entry): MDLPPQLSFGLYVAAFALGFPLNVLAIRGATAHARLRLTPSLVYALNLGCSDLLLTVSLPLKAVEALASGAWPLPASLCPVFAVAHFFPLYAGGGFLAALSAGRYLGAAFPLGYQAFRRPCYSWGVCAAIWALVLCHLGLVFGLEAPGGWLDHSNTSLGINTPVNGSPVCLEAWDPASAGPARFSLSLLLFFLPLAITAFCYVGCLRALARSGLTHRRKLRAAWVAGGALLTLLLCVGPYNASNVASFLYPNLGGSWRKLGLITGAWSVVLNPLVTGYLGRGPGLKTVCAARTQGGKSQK

SMILES	Relative activity value [1]	other results
CCOCCOc1cc(C)c(-c2cccc(COc3ccc(C4CC4C(=O)O)cc3)c2)c(C)c1 (centres unmarked) [Example 2, 2-(4-{[4′-(2-ethoxyethoxy)-2′,6′-dimethylbiphenyl-3-yl]methoxy}phenyl)cyclopropanecarboxylic acid]	111%	
CCOCCOc1cc(C)c(-c2cccc(COc3ccc(C4CC4C(=O)O)cc3)c2)c(C)c1 (centres unmarked) [Example 3, 2-(4-{[4′-(2-ethoxyethoxy)-2′,6′-dimethylbiphenyl-3-yl]methoxy}phenyl)cyclopropanecarboxylic acid calcium salt]		Relative activity value (agonist activity of each compound at 1 μM, relative to the activity of 10 μM γ-linolenic acid as 100%, CHO cell line stably expressing human GPR40, calcium salt): 103%
CC(C)CCN(Cc1ccc(COc2ccc(C3CC3C(=O)O)cc2)cc1)c1nc(-c2ccc(C(F)(F)F)cc2)cs1 (centres unmarked) [Example 9]	99%	
CCCN(Cc1ccc(COc2ccc(C3CC3C(=O)O)cc2)cc1)c1nc(-c2ccc(C(F)(F)F)cc2)cs1 (centres unmarked) [Example 11, 2-[4-({4-[(propyl{4-[4-(trifluoromethyl)phenyl]-1,3-thiazol^-2-yl}amino)methyl]benzyl}oxy)phenyl]cyclopropanecarboxylic acid]	114%	
O=C(O)C1CC1c1ccc(OCc2cccc(Oc3ccccc3)c2)cc1 (centres unmarked) [Example 13, 2-{4-[(3-phenoxybenzyl)oxy]phenyl)cyclopropanecarboxylic acid]	109%	
CCCCC/C=C\C/C=C\C/C=C\CCCCC(=O)O [γ-linolenic acid, reference compound]		Relative activity value (reference: activity of 10 μM γ-linolenic acid (GPR40 agonist) set as 100%, CHO cell line stably expressing human GPR40): 100%

The next lines start with results.

Relative activity value [1]	SMILES	other results
108%	Cc1cc(OC2CCS(=O)(=O)CC2)cc(C)c1-c1cccc(COc2ccc(C3CC3C(=O)O)cc2)c1 (centres unmarked) [Example 5, 2-[4-({4′-[(1,1-dioxidotetrahydro-2H-thiopyran-4-yl)oxy]-2′,6′-dimethylbiphenyl-3-yl}methoxy)phenyl]cyclopropanecarboxylic acid]	
119%	Cc1cc(OCC2(C)COC2)cc(C)c1-c1cccc(COc2ccc(C3CC3C(=O)O)cc2)c1 (centres unmarked) [Example 7, 2-[4-({2′,6′-dimethyl-4′-[(3-methyloxetan-3-yl)methoxy]biphenyl-3-yl}methoxy)phenyl]cyclopropanecarboxylic acid]	
